According to US12077503B2, “Substituted cyclic amides and their use as herbicides” (FMC CORPORATION, priority 2015, dated 2024):

What was measured:
Assay type in all cases: in vivo
[1] = tested on: barnyardgrass (Echinochloa crus-galli); assay: Test A preemergence; conditions: for Plant response rating, Barnyardgrass: 125 g ai/ha; for Barnyardgrass plant response rating (0 to 100 scale, 0 is no effect, 100 is complete control): 500 g ai/ha, visual injury approx. 10 d
Procedure, shortened: (§1)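 Preemergence directed soil spray on seeded pots, or postemergence application to plants 2–10 cm, one- to two-leaf. Solvent mixture non-phytotoxic, with surfactant. Scored ~10 d later, visually, 0–100 vs untreated.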

[2] = tested on: ragweed (common ragweed, Ambrosia elatior); assay: Test A preemergence; conditions: for Plant response rating, Ragweed: 125 g ai/ha; for Ragweed plant response rating (0 to 100 scale, 0 is no effect, 100 is complete control): 500 g ai/ha, visual injury approx. 10 d
Procedure, shortened: as §1

[3] = tested on: pigweed (Amaranthus retroflexus); assay: Test A preemergence; conditions: for Plant response rating, Pigweed: 125 g ai/ha; for Pigweed plant response rating (0 to 100 scale, 0 is no effect, 100 is complete control): 500 g ai/ha, visual injury approx. 10 d
[4] = tested on: giant foxtail (Setaria faberii); assay: Test A preemergence; conditions: for Plant response rating, Foxtail, Giant: 125 g ai/ha; for Foxtail, Giant plant response rating (0 to 100 scale, 0 is no effect, 100 is complete control): 500 g ai/ha, visual injury approx. 10 d
Procedure, shortened: as §1

[5] = tested on: ryegrass, Italian (Italian ryegrass, Lolium multiflorum); assay: Test A preemergence; conditions: for Plant response rating, Ryegrass, Italian: 125 g ai/ha; for Ryegrass, Italian plant response rating (0 to 100 scale, 0 is no effect, 100 is complete control): 500 g ai/ha, visual injury approx. 10 d
Procedure, shortened: as §1

Kochia (Kochia scoparia) [6] = assay: Test A preemergence; conditions: for Plant response rating, Kochia: 125 g ai/ha; for Kochia plant response rating (0 to 100 scale, 0 is no effect, 100 is complete control): 500 g ai/ha, visual injury approx. 10 d
Procedure, shortened: as §1

[7] = tested on: sedge, umbrella (small-flower umbrella sedge, Cyperus difformis); assay: Test B flooded paddy test; conditions: Flood, 0 to 100 scale where 0 is no effect and 100 is complete control, 13 to 15 d
Procedure, shortened: (§2)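 Flooding to 3 cm over soil accompanied treatment, which consisted of adding compound to the standing water around 2-leaf plants; depth was then maintained. Visual assessment versus controls followed at 13 to 15 d (scale 0–100, 0 meaning no effect).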

[8] = tested on: ducksalad (Heteranthera limosa); assay: Test B flooded paddy test; conditions: Flood, 0 to 100 scale where 0 is no effect and 100 is complete control, 13 to 15 d
Procedure, shortened: as §2

rice (Oryra sativa) = assay: Test B flooded paddy test; conditions: Flood, 0 to 100 scale where 0 is no effect and 100 is complete control, 13 to 15 d
Procedure, shortened: as §2

[9] = tested on: barnyardgrass (Echinochloa crus-galli); assay: Test B flooded paddy test; conditions: Flood, 0 to 100 scale where 0 is no effect and 100 is complete control, 13 to 15 d
Procedure, shortened: as §2

corn (Zea mays) = assay: Test A postemergence
Procedure, shortened: as §1

[10] = tested on: Galium (catchweed bedstraw, Galium aparine); assay: Test A postemergence
Procedure, shortened: as §1

[11] = tested on: barnyardgrass (Echinochloa crus-galli); assay: Test A postemergence
Procedure, shortened: as §1

[12] = tested on: ragweed (common ragweed, Ambrosia elatior); assay: Test A postemergence
Procedure, shortened: as §1

[13] = tested on: blackgrass (Alopecurus myosuroides); assay: Test A postemergence
Procedure, shortened: as §1

[14] = tested on: pigweed (Amaranthus retroflexus); assay: Test A postemergence
Procedure, shortened: as §1

[15] = tested on: giant foxtail (Setaria faberii); assay: Test A postemergence
Procedure, shortened: as §1

[16] = tested on: ryegrass, Italian (Italian ryegrass, Lolium multiflorum); assay: Test A postemergence
Procedure, shortened: as §1

[17] = tested on: wheat (Triticum aestivum); assay: Test A postemergence
Procedure, shortened: as §1

Kochia (Kochia scoparia) [18] = assay: Test A postemergence
Procedure, shortened: as §1

[19] = preemergence, 0 to 100 scale (0 no effect, 100 complete control)
[20] = 125 g ai/ha, postemergence, visual injury rating on 0 to 100 scale (0 no effect, 100 complete control), approx. 10 d
[21] = 500 g ai/ha, postemergence, 0 to 100 scale, 0 no effect, 100 complete control
[22] = Preemergence, visual injury after approximately 10 d, 0 to 100 scale where 0 is no effect and 100 is complete control
[23] = 125 g ai/ha, postemergence, visual rating after approx. 10 d, 0 to 100 scale (0 no effect, 100 complete control)
[24] = Postemergence, 500 g ai/ha, 0 to 100 scale where 0 is no effect and 100 is complete control

With `COc1ccc(NC(=O)C2C(=O)NCC2c2ccc(F)c(F)c2)c(F)c1` (stereo not drawn) [Compound 413] the “Plant response rating, Barnyardgrass” value [1, 19] was 0, the “Barnyardgrass plant response rating (0 to 100 scale, 0 is no effect, 100 is complete control)” value ([1]; Preemergence) was 0 and the “Plant response rating, Ragweed” value [2, 19] was 0. For the same compound, the “Ragweed plant response rating (0 to 100 scale, 0 is no effect, 100 is complete control)” value ([2]; Preemergence) was 0, the “Plant response rating, Pigweed” value [3, 19] was 0 and the “Pigweed plant response rating (0 to 100 scale, 0 is no effect, 100 is complete control)” value ([3]; Preemergence) was 0. For the same compound, the “Plant response rating, Foxtail, Giant” value [4, 19] was 0, the “Foxtail, Giant plant response rating (0 to 100 scale, 0 is no effect, 100 is complete control)” value ([4]; Preemergence) was 0 and the “Plant response rating, Ryegrass, Italian” value [5, 19] was 0. For the same compound, the “Ryegrass, Italian plant response rating (0 to 100 scale, 0 is no effect, 100 is complete control)” value ([5]; Preemergence) was 0, the “Plant response rating, Kochia” value (Kochia (Kochia scoparia) [6]; [19]) was 0 and the “Kochia plant response rating (0 to 100 scale, 0 is no effect, 100 is complete control)” value (Kochia (Kochia scoparia) [6]; Preemergence) was 0. The “Plant response rating, Sedge, Umbrella” value ([7]; 500 g ai/ha) was 0, the “Plant response rating, Ducksalad” value ([8]; 500 g ai/ha) was 0 and the “Plant response rating, Rice” value (rice (Oryra sativa); 500 g ai/ha) was 0. For the same compound, the “Plant response rating, Barnyardgrass” value ([9]; 500 g ai/ha) was 0, the “Corn plant response rating” value (corn (Zea mays); [20]) was 0 and the “Plant response rating, Corn” value (corn (Zea mays); [21]) was 0. The “Galium plant response rating” value [10, 20] was 0, the “Plant response rating, Galium” value [10, 21] was 0 and the “Barnyardgrass plant response rating” value [11, 20] was 0. The “Plant response rating, Barnyardgrass” value [11, 21] was 0, the “Ragweed plant response rating” value [12, 20] was 0 and the “Plant response rating, Ragweed” value [12, 21] was 0. For the same compound, the “Blackgrass plant response rating” value [13, 20] was 0, the “Plant response rating, Blackgrass” value [13, 21] was 0 and the “Pigweed plant response rating” value [14, 20] was 0. For the same compound, the “Plant response rating, Pigweed” value [14, 21] was 0, the “Foxtail, Giant plant response rating” value [15, 20] was 0 and the “Plant response rating, Foxtail, Giant” value [15, 21] was 0. For the same compound, the “Ryegrass, Italian plant response rating” value [16, 20] was 0, the “Plant response rating, Ryegrass, Italian” value [16, 21] was 0 and the “Wheat plant response rating” value [17, 20] was 0. The “Plant response rating, Wheat” value [17, 21] was 0, the “Kochia plant response rating” value (Kochia (Kochia scoparia) [18]; [20]) was 0 and the “Plant response rating, Kochia” value (Kochia (Kochia scoparia) [18]; [21]) was 0.

With `O=C1NCC(c2ccsc2Cl)C1C(=O)Nc1cccc(F)c1F` (stereo not drawn) [Compound 600] the “Plant response rating, Barnyardgrass” value [1, 22] was 30, the “Barnyardgrass plant response rating (0 to 100 scale, 0 is no effect, 100 is complete control)” value ([1]; Preemergence) was 90 and the “Plant response rating, Ragweed” value [2, 22] was 0. For the same compound, the “Ragweed plant response rating (0 to 100 scale, 0 is no effect, 100 is complete control)” value ([2]; Preemergence) was 0, the “Plant response rating, Pigweed” value [3, 22] was 0 and the “Pigweed plant response rating (0 to 100 scale, 0 is no effect, 100 is complete control)” value ([3]; Preemergence) was 0. The “Plant response rating, Foxtail, Giant” value [4, 22] was 30, the “Foxtail, Giant plant response rating (0 to 100 scale, 0 is no effect, 100 is complete control)” value ([4]; Preemergence) was 90 and the “Plant response rating, Ryegrass, Italian” value [5, 22] was 0. For the same compound, the “Ryegrass, Italian plant response rating (0 to 100 scale, 0 is no effect, 100 is complete control)” value ([5]; Preemergence) was 0, the “Plant response rating, Kochia” value (Kochia (Kochia scoparia) [6]; [22]) was 0 and the “Kochia plant response rating (0 to 100 scale, 0 is no effect, 100 is complete control)” value (Kochia (Kochia scoparia) [6]; Preemergence) was 20. For the same compound, the “Plant response rating, Sedge, Umbrella” value ([7]; 250 g ai/ha) was 0, the “Plant response rating, Ducksalad” value ([8]; 250 g ai/ha) was 85 and the “Plant response rating, Rice” value (rice (Oryra sativa); 250 g ai/ha) was 15. The “Plant response rating, Barnyardgrass” value ([9]; 250 g ai/ha) was 0, the “Plant response rating, Corn” value (corn (Zea mays); [23]) was 0 and the “Plant response rating, Corn” value (corn (Zea mays); [24]) was 0. For the same compound, the “Plant response rating, Galium” value [10, 23] was 0, the “Plant response rating, Galium” value [10, 24] was 0 and the “Plant response rating, Barnyardgrass” value [11, 23] was 0. The “Plant response rating, Barnyardgrass” value [11, 24] was 90, the “Plant response rating, Ragweed” value [12, 23] was 0 and the “Plant response rating, Ragweed” value [12, 24] was 0. The “Plant response rating, Blackgrass” value [13, 23] was 0, the “Plant response rating, Blackgrass” value [13, 24] was 0 and the “Plant response rating, Pigweed” value [14, 23] was 0. The “Plant response rating, Pigweed” value [14, 24] was 0, the “Plant response rating, Foxtail, Giant” value [15, 23] was 0 and the “Plant response rating, Foxtail, Giant” value [15, 24] was 30. For the same compound, the “Plant response rating, Ryegrass, Italian” value [16, 23] was 0, the “Plant response rating, Ryegrass, Italian” value [16, 24] was 0 and the “Plant response rating, Wheat” value [17, 23] was 0. For the same compound, the “Plant response rating, Wheat” value [17, 24] was 0, the “Plant response rating, Kochia” value (Kochia (Kochia scoparia) [18]; [23]) was 0 and the “Plant response rating, Kochia” value (Kochia (Kochia scoparia) [18]; [24]) was 0.
